Values joined by “and” are separate entries in the source; they are usually repeats but may differ in a detail not shown here. Equal values may be shown once.
What was measured:
Assay in all cases: area under growth-rate inhibition curve (AUC GRI) (dimensionless (GR-based AUC)); higher = less growth inhibition
Details in all cases: exposure time: 72 h; concentrations: 0.1, 1, 10 uM
SKBR3-P = tested on: SKBR3-P
Outline: (§1)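 The area under the growth-rate inhibition curve was measured in six breast cancer cell line models, covering triple-negative lines and HER2+ lines, both parental and resistant to a two-drug combination. Cells were exposed to compound at 0.1, 1 or 10 µM for 72 h, fixed in 4% paraformaldehyde, and nuclei were stained with Hoechst 33342 or DAPI for imaging and counting. Day 0 plates, untreated Day 3 plates and DMSO controls served to correct growth across 2 biological replicates.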

SKBR3-LTR = tested on: SKBR3-LTR
Outline: as §1

MDA-MB-231 = tested on: MDA-MB-231
Outline: as §1

MDA-MB-468 = tested on: MDA-MB-468
Outline: as §1

BT474-P = tested on: BT474-P
Outline: as §1

BT474-LTR = tested on: BT474-LTR
Outline: as §1

SMILES	area under growth-rate inhibition curve (SKBR3-P)	area under growth-rate inhibition curve (SKBR3-LTR)	area under growth-rate inhibition curve (MDA-MB-231)	area under growth-rate inhibition curve (MDA-MB-468)	area under growth-rate inhibition curve (BT474-P)	area under growth-rate inhibition curve (BT474-LTR)
CN(C)CC/C=C1/c2ccccc2Sc2ccc(Cl)cc21 [Chlorprothixene]	0.97	1.03	1.02	0.931	0.997	1.01
CC(C)C(=O)OCC(=O)[C@@]12O[C@H](C3CCCCC3)O[C@@H]1C[C@H]1[C@@H]3CCC4=CC(=O)C=C[C@]4(C)[C@H]3[C@@H](O)C[C@@]12C [Ciclesonide]	0.955	1.05	0.996	1.03	0.947	0.999
CC1(C)C[C@@H]1C(=O)N/C(=C\CCCCSC[C@H](N)C(=O)O)C(=O)[O-].[Na+] [Cilastatin sodium]	1.01	1.03	1	1.02	1.03	1.05
CCOC(=O)[C@H](CCc1ccccc1)N[C@H]1CCCN2CCC[C@@H](C(=O)O)N2C1=O.O [Cilazapril Monohydrate]	1.04	1.07	1.03	1.04	1.04	1.1
O=C1CCc2cc(OCCCCc3nnnn3C3CCCCC3)ccc2N1 [Cilostazol]	1.03	1.06	1.05	1.03	1	1.04
CNC(=NCCSCc1nc[nH]c1C)NC#N [Cimetidine]	1.02	1.05 and 1.06	1.04 and 1.05	1.04 and 1.03	1.02 and 1.06	1.05 and 1.12
C[C@@H](NCCCc1cccc(C(F)(F)F)c1)c1cccc2ccccc12.[Cl-].[H+] [Cinacalcet HCl]	0.909	0.883	0.931	0.896	0.9	0.922
O=C(O)C=CC(=O)O.O=C(c1ccc(OCCCc2c[nH]cn2)cc1)C1CC1 [Ciproxifan]	1.01	1.07	1.02	0.991	0.976	1.06
COc1ccc(C[C@@H]2c3cc(OC)c(OC)cc3CC[N@+]2(C)CCC(=O)OCCCCCOC(=O)CC[N@@+]2(C)CCc3cc(OC)c(OC)cc3[C@H]2Cc2ccc(OC)c(OC)c2)cc1OC.O=S(=O)([O-])c1ccccc1.O=S(=O)([O-])c1ccccc1 [Cisatracurium Besylate]	0.961	1.01	0.997	0.988	0.998	1.01
C[NH+]1CCC[C@@H]1CCO[C@](C)(c1ccccc1)c1ccc(Cl)cc1.O=C([O-])/C=C/C(=O)O [Clemastine Fumarate]	0.898	0.958	1.02	0.932	0.941	1.02
CCN(CC)CCOc1ccc(C(=C(Cl)c2ccccc2)c2ccccc2)cc1.O=C(O)CC(O)(CC(=O)O)C(=O)O [Clomifene citrate]	0.914	0.941	0.915	0.94	0.796	0.876
Cl.Clc1cccc(Cl)c1NC1=NCCN1 [Clonidine HCl]	1.04	1.06	1.05	1.07	1.08	1.16
COC(=O)[C@H](c1ccccc1Cl)N1CCc2sccc2C1 [Clopidogrel]	1.01	1.06	1	1.03	1.06	1.07
CN1CCN(C2=Nc3cc(Cl)ccc3Nc3ccccc32)CC1 [Clozapine]	1.01	1.07	1.04	1.03	1.06	1.09
CN1CCN(C(c2ccccc2)c2ccccc2)CC1.[Cl-].[Cl-].[H+].[H+] [Cyclizine 2HCl]	1.01	1	1.03	1.02	1.03	1.07
CN1CCC(=C2c3ccccc3C=Cc3ccccc32)CC1.[Cl-].[H+] [Cyproheptadine HCl]	1	1.09	1.02	1	1.03	1.03
CCOc1ccc(Cc2cc([C@@H]3O[C@H](CO)[C@@H](O)[C@H](O)[C@H]3O)ccc2Cl)cc1 [Dapagliflozin]	1.01	1.05	1.01	1.01	1.01	1.07
CN(C)[C@@H](CCOc1cccc2ccccc12)c1ccccc1.[Cl-].[H+] [Dapoxetine HCl]	0.974	1.03	1.02	0.991	0.985	1.03
C[N+](C)(C)CCCCCCCCCC[N+](C)(C)C.[Br-].[Br-] [Decamethonium Bromide]	1.03	1.04	1.04	1.03	1.06	1.1
Clc1ccc2c(c1)CCc1cccnc1C2=C1CCNCC1 [Desloratadine]	0.998	1.03	1	0.988	0.984	1.07
N=C(N)NCCC[C@@H](NC(=O)[C@@H]1CCCN1C(=O)[C@@H]1CSSCCC(=O)N[C@@H](Cc2ccc(O)cc2)C(=O)N[C@@H](Cc2ccccc2)C(=O)N[C@@H](CCC(N)=O)C(=O)N[C@@H](CC(N)=O)C(=O)N1)C(=O)NCC(N)=O [Desmopressin]	1.02	1.01	1.01	1.02	0.995	0.999
CN(C)CC(c1ccc(O)cc1)C1(O)CCCCC1.O=C(O)CCC(=O)O (centres undefined) [Desvenlafaxine Succinate]	1.01	1.08	1.02	1.05	1.06	1.09
CN(C)CC(c1ccc(O)cc1)C1(O)CCCCC1 (centres undefined) [Desvenlafaxine]	1	1.05	1	1.03	1.03	1.07
Cc1cccc(Cc2cnc[nH]2)c1C.Cl [Detomidine HCl]	0.991	1.08	1.03	1.02	1.01	1.04
Cc1cccc(C(C)c2c[nH]cn2)c1C (centres undefined) [Dexmedetomidine]	1.04	1.04	1.04	1.02	1.04	1.1

SMILES	area under growth-rate inhibition curve (SKBR3-P)	area under growth-rate inhibition curve (SKBR3-LTR)	area under growth-rate inhibition curve (MDA-MB-231)	area under growth-rate inhibition curve (MDA-MB-468)	area under growth-rate inhibition curve (BT474-P)	area under growth-rate inhibition curve (BT474-LTR)
Br.COc1ccc2c(c1)[C@@]13CCCCC1C(C2)N(C)CC3 (some centres undefined) [Dextromethorphan hydrobromide]	1.02	1.06	1.04	1.03	1.01	1.04
CC12CCC3=C4CCC(=O)C=C4CCC3C1CCC2(O)CC#N (centres undefined) [Dienogest]	1.01	1.04	1.03	1.03	1.05	1.12
CCCC(=O)O[C@]1(C(=O)COC(C)=O)CC[C@H]2[C@@H]3C[C@H](F)C4=CC(=O)C=C[C@]4(C)[C@@]3(F)[C@@H](O)C[C@@]21C [Difluprednate]	0.939	1.04	0.975	1.03	0.976	1.02
CN1C[C@H](C(=O)N[C@]2(C)O[C@@]3(O)[C@@H]4CCCN4C(=O)[C@H](Cc4ccccc4)N3C2=O)C[C@@H]2c3cccc4[nH]cc(c34)C[C@H]21.CS(=O)(=O)O [Dihydroergotamine mesylate]	0.947	1.05	0.986	1.02	0.974	1.01
COS(=O)(=O)[O-].C[N+]1(C)CCC(=C(c2ccccc2)c2ccccc2)CC1 [Diphemanil Methylsulfate]	0.971	1.03	1.03	1.01	1.05	1.03
OCCN(CCO)c1nc(N2CCCCC2)c2nc(N(CCO)CCO)nc(N3CCCCC3)c2n1 [Dipyridamole]	1.05	1.05	0.97	0.962	1.04	1.12
CC(CCc1ccc(O)cc1)NCCc1ccc(O)c(O)c1.[Cl-].[H+] (centres undefined) [Dobutamine hydrochloride]	1.03	1.07	1.02	1.04	0.992	1.01
O=c1[nH]c2ccccc2n1CCCN1CCC(n2c(=O)[nH]c3cc(Cl)ccc32)CC1 [Domperidone]	0.962	1.04	1.01	0.926	0.993	1
NCCc1ccc(O)c(O)c1.[Cl-].[H+] [Dopamine HCl]	1.02	1.07	1.02	1.03	1.04	1.11
COc1cc2nc(N3CCN(C(=O)C4COc5ccccc5O4)CC3)nc(N)c2cc1OC.CS(=O)(=O)O (centres undefined) [Doxazosin Mesylate]	0.958	1.03	0.99	0.966	0.991	1.07
O=C(CCCN1CC=C(n2c(=O)[nH]c3ccccc32)CC1)c1ccc(F)cc1 [Droperidol]	1.02	1.07	1.02	0.992	1.03	1.04
CC12CCC(=O)C=C1C1CC1C1C2CCC2(C)C1C1CC1C21CCC(=O)O1 (centres undefined) [Drospirenone]	1.03	1.05	1.01	1.05	1.04	1.09
CNCC[C@H](Oc1cccc2ccccc12)c1cccs1.[Cl-].[H+] [Duloxetine HCl]	0.964	1.02	1	0.88	0.892	0.98
CC(C)(c1ccc(OCC(O)CO)cc1)c1ccc(OCC(O)CCl)cc1 (stereo not drawn) [EPI-001]	1.01	1.07	1.05	1.01	0.993	1.07
CN1CCCC1Cc1c[nH]c2ccc(CCS(=O)(=O)c3ccccc3)cc12.[Br-].[H+] (centres undefined) [Eletriptan HBr]	1.01	1.03	1.04	1.02	1.03	1.14
COc1ccc(CN(C(=O)C(N)Cc2c(C)cc(C(N)=O)cc2C)C(C)c2ncc(-c3ccccc3)[nH]2)cc1C(=O)O (centres undefined) [Eluxadoline]	1.02	1.04	1.04	1.04	1	1.04
CNC[C@H](O)c1ccc(O)c(O)c1.O=C(O)[C@H](O)[C@@H](O)C(=O)O [Epinephrine Bitartrate]	1.01	1.1	0.946	1.02	1.03	1.06
CNCC(O)c1ccc(O)c(O)c1.[Cl-].[H+] (centres undefined) [Epinephrine HCl]	1.02	1.03	0.965	1	1.04	1.07
CCCCc1ncc(C=C(Cc2cccs2)C(=O)O)n1Cc1ccc(C(=O)O)cc1.CS(=O)(=O)O [Eprosartan mesylate]	1.03	1.06	1.04	1.05	1.02	1.06
Oc1ccc([C@H]2COc3cc(O)ccc3C2)cc1 [Equol]	1.05	1.05	1.02	1.01	1.07	1.08
CN(C)CCC[C@@]1(c2ccc(F)cc2)OCc2cc(C#N)ccc21.O=C(O)C(=O)O [Escitalopram Oxalate]	0.985	1.02	1.02	1.02	1.03	1.1
CCCCC(=O)O[C@H]1CC[C@H]2[C@@H]3CCc4cc(O)ccc4[C@H]3CC[C@]12C [Estradiol valerate]	1.02	1.05	1.01	1.03	1.04	1.05
C[C@]12CC[C@@H]3c4ccc(O)cc4CC[C@H]3[C@@H]1C[C@@H](O)[C@@H]2O [Estriol]	0.989	1.01	0.988	0.987	0.979	1.01
C[C@]12CC[C@@H]3c4ccc(O)cc4CC[C@H]3[C@@H]1CCC2=O [Estrone]	1.02	1.05	1.03	1	1.07	1.08

Source: the supplement of paper PMC9763283
